# Earlier results, collected in patent publication US20250224401A1, “METHODS OF DIAGNOSING B CELL MALIGNANCIES, DETECTING B CELL MALIGNANCY RELAPSE, AND TREATING THEREOF” (Rutgers, The State University of New Jersey, priority 2022, published 2025).
# Test system: cultured human malignant B cells
# Conditions: in vitro
smiles,measurement,value
C=CC(=O)N1CCC[C@@H](n2nc(-c3ccc(Oc4ccccc4)cc3)c3c(N)ncnc32)C1 [ibrutinib],cytotoxic effects on cultured human malignant B cells,moderate or minimal cytotoxic effects
